Test results taken from patent US20240201189A1, “FLUORESCENT PROBE FOR USE IN DETECTION OF PANCREATIC CANCER” (The University of Tokyo, priority 2021, published 2024).
Values joined by “and” are separate entries in the source; they are usually repeats but may differ in a detail not shown here. Identical values can stand only once.

Experiments:
[1] = test system: pancreatic cancer tissue in surgically resected specimen; assay: Fluorescence imaging of cut surface of surgically resected pancreatic cancer specimens (TBR); assay type: cell-based, human
Description: Immediately after the pancreatic cancer specimen was extracted, the pancreatic cancer specimen was cut so as to include a maximum diameter of pancreatic cancer tissue. Next, the fluorescent probe described above (4 mL, 50 μM) was directly applied to the cut surface and fluorescence imaging was performed using Maestro in Vivo imaging system as described above. The accuracy of the fluorescence imaging was evaluated by a surgeon (RT) and a pathologist (MT) with reference to histopathological findings on the same plane. In addition, a tumor/background ratio (TBR) was also calculated by measuring the increase in average FI from 1 minute to 30 minutes after probe administration in carcinomatous and non-carcinomatous sites based on macroscopic/microscopic findings of the cut surface and corresponding fluorescence images.

[2] = test system: lysates prepared from tissue fragments of carcinomatous and non-carcinomatous sites (pancreatic cancer resected specimens); assay: Primary screening: increase in FI of probes mixed with lysates of carcinomatous and non-carcinomatous tissue; assay type: biochemical, human; conditions: lysates from five patients; probe 1.0 μM; 60 minutes, 37° C.; FIG. 1A
Description: First, according to the procedure described in Non Patent Literatures 6 to 8, each of lysates prepared from tissue fragments of carcinomatous and non-carcinomatous sites was mixed with a fluorescent probe, an increased value of fluorescence intensity was measured, and a fluorescent probe as a candidate was selected. Briefly, 5 μL of a lysate (protein concentration: 0.20 mg/dL) was added dropwise to a well of a black 384 plate in which 15 μL of a library of dipeptide-HMRG compounds (Non Patent Literature 8) was arranged. Final concentrations of the candidate probe and the lysate protein were 1.0 μM and 0.050 mg/dL, respectively.
The fluorescence intensity (FI) of each sample was measured at 0 minutes and 60 minutes after mixing with Envision Multilabel Plate Reader (PerkinElmer, Massachusetts, USA) while performing incubation at 37° C. Excitation and emission wavelengths were set to 485 nm and 535 nm, respectively. An increase in FI was defined as follows.
(Increase in FI)=(FI after 60 minutes)−(FI after 0 minutes)
Probes with the top 10% difference or ratio in the increase in FI in the carcinomatous and non-carcinomatous lysates were selected as candidate probes and evaluated as follows.

Human recombinant DPP-IV = molecular target: T1, Human recombinant DPP-IV (Homo sapiens, UniProt P27487); assay: Target enzyme search: change in FI of probe after adding DPP-IV; assay type: biochemical; conditions: probe 1.0 μM; 2,000 seconds; ex/em 495 nm/525 nm; FIG. 5A
T1 construct: purchased Sigma-Aldrich D 4943
T1 sequence (P27487 whole entry): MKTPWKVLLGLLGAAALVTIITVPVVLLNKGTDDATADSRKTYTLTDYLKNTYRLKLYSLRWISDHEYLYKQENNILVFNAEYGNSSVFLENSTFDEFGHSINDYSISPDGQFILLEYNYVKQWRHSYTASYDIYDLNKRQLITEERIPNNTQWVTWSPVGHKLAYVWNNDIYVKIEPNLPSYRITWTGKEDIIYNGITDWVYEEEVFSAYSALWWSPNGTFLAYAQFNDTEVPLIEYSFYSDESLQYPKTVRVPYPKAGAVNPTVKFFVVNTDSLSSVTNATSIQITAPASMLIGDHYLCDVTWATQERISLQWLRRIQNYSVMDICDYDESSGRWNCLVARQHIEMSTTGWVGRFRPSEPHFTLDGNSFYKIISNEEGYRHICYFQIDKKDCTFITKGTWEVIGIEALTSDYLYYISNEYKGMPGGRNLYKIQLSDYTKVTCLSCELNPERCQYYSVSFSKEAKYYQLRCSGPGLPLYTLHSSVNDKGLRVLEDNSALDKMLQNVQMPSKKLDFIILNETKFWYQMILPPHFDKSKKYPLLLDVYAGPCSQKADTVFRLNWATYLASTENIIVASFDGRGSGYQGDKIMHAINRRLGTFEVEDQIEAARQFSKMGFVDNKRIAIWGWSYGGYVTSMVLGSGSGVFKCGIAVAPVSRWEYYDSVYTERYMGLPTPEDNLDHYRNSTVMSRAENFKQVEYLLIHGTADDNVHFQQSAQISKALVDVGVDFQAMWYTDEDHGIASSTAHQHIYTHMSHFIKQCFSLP
Description: (§1) It was considered that dipeptidyl peptidase 4 (DPP-IV) or a similar enzyme was a target enzyme overexpressed in pancreatic cancer tissue. First, the candidate fluorescent probe was examined whether DPP-IV or the similar enzyme was activated. Human recombinant DPP-IV (50 μL; D 4943, Sigma-Aldrich), DPP-VIII (1.0 μg; ab162872, abcam), and DPP-IX (1.0 μg; ab79621, abcam) were injected into 3.0 mL of a probe solution (1.0 μM) using F-7000 (Hitachi (Tokyo)), and a change in FI during 2,000 seconds was measured. Excitation and emission wavelengths were set to 495 and 525 nm, respectively.

Human recombinant DPP-IX = molecular target: T2, Human recombinant DPP-IX (Homo sapiens, UniProt Q86TI2); assay: Target enzyme search: change in FI of probe after adding DPP-IX; assay type: biochemical; conditions: probe 1.0 μM; 2,000 seconds; ex/em 495 nm/525 nm; FIG. 5C
T2 construct: purchased abcam ab79621
T2 sequence (Q86TI2 whole entry): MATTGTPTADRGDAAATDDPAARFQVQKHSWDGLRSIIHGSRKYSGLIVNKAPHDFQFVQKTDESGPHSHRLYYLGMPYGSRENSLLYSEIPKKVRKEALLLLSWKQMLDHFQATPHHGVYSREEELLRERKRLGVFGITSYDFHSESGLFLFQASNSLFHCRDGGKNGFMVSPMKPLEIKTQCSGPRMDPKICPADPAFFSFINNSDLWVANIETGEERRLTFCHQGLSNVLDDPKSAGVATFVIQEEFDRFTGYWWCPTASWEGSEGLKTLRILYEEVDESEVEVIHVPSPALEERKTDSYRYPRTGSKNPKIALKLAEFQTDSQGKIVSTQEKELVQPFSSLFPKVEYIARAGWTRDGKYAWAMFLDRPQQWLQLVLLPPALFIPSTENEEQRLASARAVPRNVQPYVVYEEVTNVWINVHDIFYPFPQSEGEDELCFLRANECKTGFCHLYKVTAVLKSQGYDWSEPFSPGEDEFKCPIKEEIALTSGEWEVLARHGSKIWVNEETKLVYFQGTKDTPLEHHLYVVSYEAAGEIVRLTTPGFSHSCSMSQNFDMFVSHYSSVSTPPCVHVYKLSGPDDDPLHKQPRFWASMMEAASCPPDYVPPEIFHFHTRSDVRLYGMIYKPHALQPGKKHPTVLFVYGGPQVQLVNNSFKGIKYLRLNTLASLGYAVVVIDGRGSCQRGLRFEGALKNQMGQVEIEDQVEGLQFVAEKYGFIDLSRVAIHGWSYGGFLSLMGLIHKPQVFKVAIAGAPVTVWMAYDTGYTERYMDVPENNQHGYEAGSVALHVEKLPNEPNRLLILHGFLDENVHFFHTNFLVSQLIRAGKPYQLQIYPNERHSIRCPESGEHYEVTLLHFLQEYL
Description: as §1

## NCC(=O)N1CCC[C@H]1C(=O)Nc1ccc2c(c1)Oc1cc(N)ccc1C21OCc2ccccc21 (stereo partly drawn) [GP-HMRG]
[1]; 30 minutes after spraying, eight patients
  average TBR of the fluorescence images: 1.96 (range, 1.31 to 2.04)
[1]; Patient No. 8, after preoperative chemotherapy, cancer invasion
  TBR in the connective tissue surrounding the splenic artery: 2.04
[1]; Patient No. 8, after preoperative chemotherapy, fibrosis and mucinous changes, few viable cancer cells
  TBR of the main tumor: 1.13
[1]; after topical administration
  time from which increase in fluorescence signal in carcinomatous tissue was confirmed: 1 min
[1]; four of eight patients (Patient Nos. 1, 2, 4 and 5)
  TBR in patients with uniform fluorescence signal of carcinomatous tissue: > 1.9
[1]; one value per patient (Patients 1-8), cut surface, increase in average FI from 1 to 30 minutes, probe 4 mL, 50 μM
  A TBR ratio of FI: 1.98 (2×) and 1.93 and 1.47 and 1.26 and 1.13 and 3.44 and 2.06
[2]
  increase in FI in carcinomatous tissue as opposed to non-carcinomatous tissue (lysates): significant increase in FI in carcinomatous tissue
Human recombinant DPP-IV
  conversion of probe into fluorescent HMRG in reaction with DPP-IV: converted into a highly fluorescent HMRG
Human recombinant DPP-IX
  conversion of probe into fluorescent HMRG in reaction with DPP-IX: converted into a highly fluorescent HMRG

## Nc1ccc2c(c1)Oc1cc(NC(=O)[C@@H]3CCCN3C(=O)[C@@H](N)Cc3ccc(O)cc3)ccc1C21OCc2ccccc21 (stereo partly drawn) [YP-HMRG]
[2]
  increase in FI in carcinomatous tissue as opposed to non-carcinomatous tissue (lysates): significant increase in FI in carcinomatous tissue

## Nc1ccc2c(c1)Oc1cc(NC(=O)[C@@H]3CCCN3C(=O)[C@@H]3CCCN3)ccc1C21OCc2ccccc21 (stereo partly drawn) [PP-HMRG]
[2]
  increase in FI in carcinomatous tissue as opposed to non-carcinomatous tissue (lysates): significant increase in FI in carcinomatous tissue

## CC(C)C[C@H](N)C(=O)N1CCC[C@H]1C(=O)Nc1ccc2c(c1)Oc1cc(N)ccc1C21OCc2ccccc21 (stereo partly drawn) [LP-HMRG]
[2]
  increase in FI in carcinomatous tissue as opposed to non-carcinomatous tissue (lysates): significant increase in FI in carcinomatous tissue
